From the NIST ThermoML archive (doi:10.1021/je7003758)

Experiment: xn = mol fraction of the nth substance listed
Conditions: 298.15 K, Liquid

ClCCCCCCCl [1,6-dichlorohexane] + CN1CCCC1=O
mass density [kg/m3]
Conditions	x2 = 0.1182	x2 = 0.2016	x2 = 0.3079	x2 = 0.4114	x2 = 0.5049	x2 = 0.6008	x2 = 0.7023	x2 = 0.8009	x2 = 0.8972
100 kPa	1060.7	1058.4	1055.4	1052	1049	1045.6	1041.6	1037.5	1033.1
500 kPa	1060.9	1058.7	1055.6	1052.3	1049.2	1045.8	1041.8	1037.7	1033.4
1000 kPa	1061.3	1059.1	1056	1052.6	1049.5	1046.1	1042.1	1038	1033.6
1500 kPa	1061.6	1059.4	1056.3	1052.9	1049.8	1046.4	1042.4	1038.3	1033.9
2000 kPa	1062	1059.7	1056.6	1053.3	1050.1	1046.7	1042.7	1038.6	1034.2
2500 kPa	1062.3	1060	1056.9	1053.6	1050.5	1047	1043	1038.9	1034.4
3000 kPa	1062.6	1060.4	1057.3	1053.9	1050.8	1047.3	1043.3	1039.1	1034.7
3500 kPa	1063	1060.8	1057.6	1054.3	1051.1	1047.6	1043.6	1039.4	1035
4000 kPa	1063.3	1061.1	1057.9	1054.6	1051.4	1047.9	1043.9	1039.7	1035.3
4500 kPa	1063.7	1061.4	1058.3	1054.9	1051.7	1048.2	1044.2	1040	1035.5
5000 kPa	1064	1061.8	1058.6	1055.2	1052	1048.5	1044.4	1040.3	1035.8
5500 kPa	1064.4	1062.1	1058.9	1055.5	1052.4	1048.9	1044.7	1040.5	1036.1
5900 kPa	–	–	–	–	–	1049.2	–	–	–
6000 kPa	1064.7	1062.4	1059.4	1055.8	1052.7	–	1045	1040.8	1036.4
6500 kPa	1065	1062.8	1059.6	1056.1	1053	1049.4	1045.3	1041.1	1036.6
7000 kPa	1065.4	1063.1	1059.9	1056.5	1053.3	1049.7	1045.6	1041.4	1036.9
7500 kPa	1065.7	1063.5	1060.2	–	1053.6	1050	1045.9	1041.7	1037.2
7600 kPa	–	–	–	1056.7	–	–	–	–	–
8000 kPa	1066.1	1063.7	1060.5	1057.1	1054	1050.3	1046.2	1041.9	1037.4
8500 kPa	1066.5	1064	1060.8	1057.4	1054.2	1050.6	1046.5	1042.2	1037.8
8900 kPa	1066.7	–	–	–	–	–	–	–	–
9000 kPa	–	1064.4	1061.2	1057.7	1054.5	1050.9	1046.8	1042.5	1038
9500 kPa	1067	1064.8	1061.5	1058	1054.9	1051.2	1047.1	1042.8	1038.2
10000 kPa	1067.4	1065.2	1061.9	1058.4	1055.2	1051.6	1047.4	1043.1	1038.6
10500 kPa	1067.8	1065.4	1062.2	1058.7	1055.6	1051.9	1047.7	1043.4	1038.8
11000 kPa	1068.1	1065.8	1062.5	1059	1055.9	1052.2	1048	1043.6	1039.1
11500 kPa	1068.4	1066.1	1062.8	1059.3	1056.2	1052.4	1048.2	1044	1039.3
12000 kPa	1068.8	1066.4	1063.1	1059.6	1056.4	1052.7	1048.5	1044.2	1039.6
12500 kPa	1069.1	1066.7	1063.5	1059.9	1056.7	1053	1048.8	1044.5	1039.8
13000 kPa	1069.4	1067	1063.8	1060.3	1057	1053.3	1049.2	1044.8	1040.1
13400 kPa	–	–	–	–	–	–	1049.5	–	–
13500 kPa	1069.7	1067.4	1064.1	1060.6	1057.3	1053.6	–	1045.1	1040.4
13900 kPa	–	–	–	–	1057.6	–	–	–	–
14000 kPa	1070	1067.6	1064.4	1060.9	–	1053.9	1049.7	1045.3	1040.6
14400 kPa	–	–	–	–	–	–	–	1045.6	–
14500 kPa	1070.4	1068	1064.7	1061.2	1057.9	1054.2	1050	–	1041
15000 kPa	1070.7	1068.3	1065	1061.5	1058.2	1054.5	1050.3	1045.9	1041.2
15400 kPa	–	–	–	1061.8	–	–	–	–	–
15500 kPa	1071	1068.6	1065.4	–	1058.5	1054.8	1050.6	1046.2	1041.4
16000 kPa	1071.4	1069	1065.6	1062	1058.8	1055.1	1050.8	1046.4	1041.7
16500 kPa	1071.7	1069.2	1065.9	1062.4	1059.1	1055.4	1051	1046.6	1041.9
16900 kPa	–	–	1066.2	–	–	–	–	–	–
17000 kPa	1072	1069.6	–	1062.7	1059.4	1055.6	1051.3	1046.9	1042.2
17500 kPa	1072.3	1069.8	1066.5	–	1059.7	1055.9	1051.6	1047.2	1042.5
17600 kPa	–	–	–	1063	–	–	–	–	–
17900 kPa	1072.6	–	–	–	–	1056.2	–	–	–
18000 kPa	–	1070.2	1066.7	1063.3	1059.9	–	1051.8	1047.5	1042.7
18400 kPa	–	–	–	–	–	–	–	1047.6	–
18500 kPa	1072.9	1070.5	1067.1	1063.5	1060.2	1056.5	1052.1	–	1043
19000 kPa	1073.3	1070.8	1067.4	1063.9	1060.6	1056.8	1052.4	1048	1043.2
19400 kPa	–	–	1067.7	1064.1	–	–	–	–	–
19500 kPa	1073.6	1071.1	–	–	1060.9	1057	1052.8	1048.2	1043.5
20000 kPa	1073.9	1071.4	1068.2	–	1061.2	1057.5	1053	1048.7	1043.8
20100 kPa	–	–	–	1064.5	–	–	–	–	–
